# From patent US20240174641A1, “HETEROCYCLIC COMPOUNDS CAPABLE OF […]” (Boehringer Ingelheim International GmbH, priority 2022, published 2024)
# Columns and labels:
# dog STING (dSTING) = assay: Dog differential scanning fluorimetry (DSF) assay, thermal shift of dog STING protein; format: binding; details: DSF (dDSF); 100 μM compound, 3 μM dog STING protein; Tm with ligand minus Tm of protein alone
# Summary of the method: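 Dog STING residues 149–375, His-tag removed by TEV, tested at 3 μM with 100 μM compound, 5× SYPRO Orange and 2% DMSO in 20 mM Tris, 150 mM NaCl, pH 7.5. Heated 15–95 °C in 0.5 °C steps. Tm from Boltzmann fit, duplicates averaged; ΔTm relative to protein alone.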
# STING = STING (Canis lupus familiaris, UniProt A0A8I3MH52); assay: Dog whole blood (dWB) assay, IFNb secretion by ELISA; format: cell-based; details: canine Interferon-beta (IFNb) ELISA, 4 h incubation at 37° C.
# Procedure: For the detection of STING activation in physiological environment dog whole blood (dWB) was stimulated by the cyclic dinucleotide cGAMP or a test compound. Pathway activity was monitored by measuring the IFNb production.
# Compounds were delivered as 10 mM DMSO solution, diluted and transferred by using an Echo acoustic dispenser to the 384 well assay plate (Greiner #781182), pre-filled with 10 μl 1×HBSS in each well (10×HBSS (+Ca/+Mg), #14065-049, Gibco). Typically, 8 concentrations were used with the highest concentration at 10 μM in the final assay volume followed by approximately 1:4 dilution steps. DMSO concentration was set to 0.1% in the final assay volume. The 384-well assay plate contained 20 test compounds and DMSO in control and cGAMP standard wells. The dog whole blood was collected as Na-Citrate blood (e.g., 3.8% in Monovettes from Sarstedt) and kept at 4° C. overnight until use in the assay. 80 μl of the whole blood samples were transferred to each well of the 384-well assay plates filled with compound/1×HBSS. Blood plates were kept at room temperature for 60 minutes and continuous shaking with 450 rpm, covered with the lid, but not sealed. A 10×cGAMP assay solution was diluted from a 2 mM stock solution in 1×HBSS immediately before use at room temperature. 10 μl of the 10×cGAMP/HBSS were added to the high control wells, whereas HBSS only was added to all compound and low control wells. After covering assay plates with the lid, blood plates were kept for a 4 h incubation at 37° C. in the incubator, without shaking. For the detection of IFNb in dog plasma the ELISA Kit for Canine Interferon Beta (Biotrend #SEA222Ca) was used. Whole blood assay plates were centrifuged at 1000 g for 10 minutes at 8° C. […] was transferred with a 96 well pipetting robotics from the 384 well whole blood plate to the corresponding 96 well ELISA plate, pre-filled with 60 μl assay diluent in each well. Plates were sealed with microplate seals and kept at 4° C. overnight again. ELISA plates were brought to room temperature, followed by a 1 h incubation at 37° C. in the incubator. Detection Reagent A working solution was prepared by diluting Detection Reagent A 1:100 in Assay Reagent A. Liquid was then removed from the 96 well ELISA plate to add 100 μL Detection Reagent A working solution to each well. ELISA plates were covered with the plate sealer and incubated for 1 hour at 37° C. in the incubator. The 1× Wash buffer was prepared by diluting the 30× Wash Buffer Concentrate in H2O. Detection Reagent B working solution was prepared by diluting Detection Reagent B 1:100 in Assay Reagent B. The ELISA plates were washed three times with 350 μl wash buffer and afterwards inverted and blotted against absorbent paper to remove any liquid. 100 μL of Detection Reagent B working solution was added to each well of the ELISA plates, which are then covered with the plate sealer and incubated for 30 minutes at 37° C. in the incubator. After incubation the ELISA assay plates were washed five times with 350 μl wash buffer and were again inverted and blotted against absorbent paper to remove any remaining liquid. 90 μL of TMB Substrate was added to each well of the ELISA plates, which were then covered with the plate sealer and incubated for 15 minutes at 37° C. in the incubator. The reaction was stopped by adding 50 μL stop solution and absorbance was measured at 450 nm immediately.
# For data evaluation and calculation, % control calculation of each well was based on the mean of high (cGAMP stimulated control) and mean of low (unstimulated control) controls by using the following standard 4 parameter logistic regression formula:
# [y=(a−d)/(1+(x/c)^b)+d] • a=low value, • d=high value, • x=conc M, • c=EC50 M, • b=slope. Dog Liver Microsome (dLM) Assay
# Chain of STING (A0A8I3MH52 1-374): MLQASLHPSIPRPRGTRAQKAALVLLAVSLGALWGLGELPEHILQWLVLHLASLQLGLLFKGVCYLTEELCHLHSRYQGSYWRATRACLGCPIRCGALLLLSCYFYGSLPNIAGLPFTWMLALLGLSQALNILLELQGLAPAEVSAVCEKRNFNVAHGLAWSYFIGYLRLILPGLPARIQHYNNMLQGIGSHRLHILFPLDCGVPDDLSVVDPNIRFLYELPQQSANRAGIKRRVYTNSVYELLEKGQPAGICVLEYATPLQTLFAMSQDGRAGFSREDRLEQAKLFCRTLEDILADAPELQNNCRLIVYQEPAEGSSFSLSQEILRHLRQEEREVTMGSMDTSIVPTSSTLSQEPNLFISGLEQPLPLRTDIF
SMILES,Delta TM (dog STING (dSTING)) [°C],EC50 (STING) [nM]
"Cc1cccc2c(-c3c(F)ccc4nn(C)c(F)c34)nn(-c3ccc(N4C[C@@H]5[C@H](C4)[C@H]5C(=O)O)nc3)c12 [Example 74, (1R,5S,6R)-3-(5-{3″,5″-difluoro-2″,7-dimethyl-1H,2″H-[3,4″-biindazol]-1-yl}pyridin-2-yl)-3-azabicyclo[3.1.0]hexane-6-carboxylic acid]",36.4,160
"Cc1c(F)ccc2c(-c3c(F)ccc4nn(C)cc34)nn(-c3ccc(N4CCC(C(=O)O)CC4)nc3)c12 [Example 65, 1-(5-{5″,6-difluoro-2″,7-dimethyl-1H,2″H-[3,4″-biindazol]-1-yl}pyridin-2-yl)piperidine-4-carboxylic acid]",36.5,330
"CC(=O)N1C[C@@H]2C[C@H]1CN2c1ccc(-n2nc(-c3cccc4nn(C)c(F)c34)c3cccc(C)c32)cn1 [Example 21, 1-[(1S,4S)-5-(5-{3″-fluoro-2″,7-dimethyl-1H,2″H-[3,4″-biindazol]-1-yl}pyridin-2-yl)-2,5-diazabicyclo[2.2.1]heptan-2-yl]ethan-1-one]",24.9,1010
"Cc1cccc2c(-c3ccc(F)c4nn(C)c(F)c34)nn(-c3ccc(N4CC[C@H](CC(=O)O)C4)nc3)c12 [Example 55, 2-[(3R)-1-(5-{3″,7″-difluoro-2″,7-dimethyl-1H,2″H-[3,4″-biindazol]-1-yl}pyridin-2-yl)pyrrolidin-3-yl]acetic acid]",34.5,197
"Cc1cccc2c(-c3c(F)ccc4nn(C)cc34)nn(-c3ccc(N4C[C@H]5C[C@@H]4C[C@@H]5C(=O)O)nc3)c12 [Example 27-2, (1R,4S,5S)-2-(5-{5″-fluoro-2″,7-dimethyl-1H,2″H-[3,4″-biindazol]-1-yl}pyridin-2-yl)-2-azabicyclo[2.2.1]heptane-5-carboxylic acid]",35.6,247
"Cc1c(F)ccc2c(-c3c(F)cc(F)c4nn(C)cc34)nn(-c3ccc(N4CCC(C(=O)O)CC4)nc3)c12 [Example 70, 1-(5-{5″,6,7″-trifluoro-2″,7-dimethyl-1H,2″H-[3,4″-biindazol]-1-yl}pyridin-2-yl)piperidine-4-carboxylic acid]",34.5,296
"Cc1c(F)ccc2c(-c3cccc4nn(C)c(F)c34)nn(-c3ccc(N4CCC(C(=O)O)CC4)nc3)c12 [Example 60, 1-(5-{3″,6-difluoro-2″,7-dimethyl-1H,2″H-[3,4″-biindazol]-1-yl}pyridin-2-yl)piperidine-4-carboxylic acid]",34.5,195
"Cc1cccc2c(-c3c(F)cc(F)c4nn(C)cc34)nn(-c3ccc(N4CC[C@H](CC(=O)O)C4)nc3)c12 [Example 46, 2-[(3R)-1-(5-{5″,7″-difluoro-2″,7-dimethyl-1H,2″H-[3,4″-biindazol]-1-yl}pyridin-2-yl)pyrrolidin-3-yl]acetic acid]",35.3,261
"Cc1c(F)ccc2c(-c3cccc4nn(C)c(F)c34)nn(-c3ccc(N4C[C@@H]5[C@H](C4)[C@H]5C(=O)O)nc3)c12 [Example 11, (1R,5S,6R)-3-(5-{3″,6-Difluoro-2″,7-dimethyl-1H,2″H-[3,4″-biindazol]-1-yl}pyridin-2-yl)-3-azabicyclo[3.1.0]hexane-6-carboxylic acid]",34.8,458
"CC(=O)N1CC2CCC1CN2c1ccc(-n2nc(-c3cccc4nn(C)c(F)c34)c3cccc(C)c32)cn1 (stereo not drawn) [Example 23, 1-[5-(5-{3″-fluoro-2″,7-dimethyl-1H,2″H-[3,4″-biindazol]-1-yl}pyridin-2-yl)-2,5-diazabicyclo[2.2.2]octan-2-yl]ethan-1-one]",29.6,219
"Cc1cccc2c(-c3c(F)ccc4nn(C)cc34)nn(-c3ccc(N4CC5CCC4CC5C(=O)O)nc3)c12 (single isomer, unassigned) [Example 28-3]",37.1,222
"Cc1c(F)ccc2c(-c3c(F)ccc4nn(C)cc34)nn(-c3ccc(N4C[C@@H]5[C@H](C4)[C@H]5C(=O)O)nc3)c12 [Example 64, (1R,5S,6R)-3-(5-{5″,6-difluoro-2″,7-dimethyl-1H,2″H-[3,4″-biindazol]-1-yl}pyridin-2-yl)-3-azabicyclo[3.1.0]hexane-6-carboxylic acid]",36.5,666
CC(=O)N1CCN(c2ccc(-n3nc(-c4c(Cl)ccc5nn(C)cc45)c4cccc(C)c43)cn2)CC1 [Example 78],18.4,817
"Cc1cccc2c(-c3cccc4nn(C)c(F)c34)nn(-c3ccc(N4CCC(C(=O)O)CC4)nc3)c12 [Example 2, 1-(5-{3″-Fluoro-2″,7-dimethyl-1H,2″H-[3,4″-biindazol]-1-yl}pyridin-2-yl)piperidine-4-carboxylic acid]",34.5,236
"Cc1cccc2c(-c3ccc(F)c4nn(C)c(F)c34)nn(-c3ccc(N4CC[C@@H](CC(=O)O)C4)nc3)c12 [Example 54, 2-[(3S)-1-(5-{3″,7″-difluoro-2″,7-dimethyl-1H,2″H-[3,4″-biindazol]-1-yl}pyridin-2-yl)pyrrolidin-3-yl]acetic acid]",30.0,261
"CC(=O)N1CCN(c2ccc(-n3nc(-c4cccc5nn(C)c(F)c45)c4ccc(F)c(C)c43)cn2)CC1 [Example 61, 1-[4-(5-{3″,6-difluoro-2″,7-dimethyl-1H,2″H-[3,4″-biindazol]-1-yl}pyridin-2-yl)piperazin-1-yl]ethan-1-one]",30.8,245
"Cc1cccc2c(-c3c(F)cc(F)c4nn(C)cc34)nn(-c3ccc(N4CC5CCC4CC5C(=O)O)nc3)c12 (single isomer, unassigned) [Example 48-4]",36.1,169
"Cc1cccc2c(-c3cccc4nn(C)c(F)c34)nn(-c3ccc(N4CC[C@H](CC(=O)O)C4)nc3)c12 [Example 17, 2-[(3R)-1-(5-{3″-fluoro-2″,7-dimethyl-1H,2″H-[3,4″-biindazol]-1-yl}pyridin-2-yl)pyrrolidin-3-yl]acetic acid]",35.8,185
"Cc1cccc2c(-c3cccc4nn(C)c(F)c34)nn(-c3ccc(N4CC5CCC4CC5C(=O)O)nc3)c12 (single isomer, unassigned) [Example 20-4, 2-(5-{3'-fluoro-2',7-dimethyl-1H,2'H-[3,4'-biindazol]-1-yl}pyridin-2-yl)-2-azabicyclo[2.2.2]octane-5-carboxylic acid]",36.9,207
"Cc1cccc2c(-c3c(F)ccc4nn(C)cc34)nn(-c3ccc(N4C[C@@H]5[C@H](C4)[C@H]5C(=O)O)nc3)c12 [Example 5, (1R,5S,6S)-3-(5-{5″-Fluoro-2″,7-dimethyl-1H,2″H-[3,4″-biindazol]-1-yl}pyridin-2-yl)-3-azabicyclo[3.1.0]hexane-6-carboxylic acid]",36.5,282
"Cc1cccc2c(-c3cccc4nn(C)c(F)c34)nn(-c3ccc(N4C[C@H]5C[C@@H]4C[C@@H]5C(=O)O)nc3)c12 [Example 73-1, (1R,4S,5S)-2-(5-{3″-fluoro-2″,7-dimethyl-1H,2″H-[3,4″-biindazol]-1-yl}pyridin-2-yl)-2-azabicyclo[2.2.1]heptane-5-carboxylic acid]",34.5,87.5
